Results taken from US11312727B1, “Macrocyclic flu endonuclease inhibitors” (Janssen BioPharma, Inc., priority 2018, dated 2022).

Columns and labels:
[1] = in vitro; settings: human, CC50, uninfected A549 cells, CellTiter-Glo
[2] = test system: Influenza strain A549 A/WSN/33 (H1N1); experiment: microbe, parasite or virus in culture; assay type: cell-based; settings: Influenza A virus, A549, 20 h, A549 cells, influenza A/WSN/33 (H1N1), 20 hours incubation; read-out: A549_A(H1N1) EC50

| Structure (SMILES) | CC50 [1] [nM] | EC50 [2] [nM] |
| --- | --- | --- |
| O=C1c2c(O)c(=O)ccn2N2CN1C/C=C\COc1c(cccc1C(F)(F)F)[C@@H]2c1ccccc1 (single isomer, unassigned) [Compound 130B, (18*S,Z)-12-hydroxy-18-phenyl-4-(trifluoromethyl)-6,9-dihydro-18H-10,17-methanobenzo[b]pyrido[1,2-f][1]oxa[5,6,9]triazacyclotridecine-11,13-dione] | > 200 | > 100 |
| O=C1c2c(O)c(=O)ccn2N2CN1CC[C@@H]1C[C@H]1COc1cccc3c1[C@@H]2c1ccccc1SC3 (single isomer, unassigned) [Compound 131AA, (1*R,13*S,15*R)-7-hydroxy-17-oxa-24-thia-2,3,10-triazaheptacyclo[16.12.1.12,10.03,8.013,15.022,31.025,30]dotriaconta-4,18,20,22(31),25(30),26,28-heptaene-6,9-dione] | > 200 | 4.7 |
| O=C1c2c(O)c(=O)ccn2N2CN1CCC1C[C@@H]1COc1cccc3c1[C@@H]2c1ccccc1SC3 (single isomer, unassigned) [Compound 131AB, (1*R,13*R,15*S)-7-hydroxy-17-oxa-24-thia-2,3,10-triazaheptacyclo[16.12.1.12,10.03,8.013,15.022,31.025,30]dotriaconta-4,18,20,22(31),25(30),26,28-heptaene-6,9-dione] | > 200 | 17 |
| O=C1c2c(O)c(=O)ccn2N2CN1CC[C@@H]1C[C@H]1COc1cccc3c1[C@H]2c1ccccc1SC3 (single isomer, unassigned) [Compound 131BA, (1*S,13*S,15*R)-7-hydroxy-17-oxa-24-thia-2,3,10-triazaheptacyclo[16.12.1.12,10.03,8.013,15.022,31.025,30]dotriaconta-4,18,20,22(31),25(30),26,28-heptaene-6,9-dione] | > 200 | > 100 |
| O=C1c2c(O)c(=O)ccn2N2CN1CC[C@H]1C[C@@H]1COc1cccc3c1[C@H]2c1ccccc1SC3 (single isomer, unassigned) [Compound 131BB, (1*S,13*R,15*S)-7-hydroxy-17-oxa-24-thia-2,3,10-triazaheptacyclo[16.12.1.12,10.03,8.013,15.022,31.025,30]dotriaconta-4,18,20,22(31),25(30),26,28-heptaene-6,9-dione] | > 200 | > 100 |
| CC(C)[C@@H]1/C=C/COc2ccccc2[C@@H](c2ccccc2)N2CN1C(=O)c1c(O)c(=O)ccn12 (single isomer, unassigned) [Compound 132A, (9*R,18*R,*E)-12-hydroxy-9-isopropyl-18-phenyl-9,10-dihydro-6H,18H-10,17-methanobenzo[b]pyrido[1,2-f][1]oxa[5,6]diazacyclotridecine-11,13-dione] | > 200 | > 100 |
| CC(C)[C@H]1/C=C/COc2ccccc2[C@H](c2ccccc2)N2CN1C(=O)c1c(O)c(=O)ccn12 (single isomer, unassigned) [Compound 132B, (9*S,18*S,*E)-12-hydroxy-9-isopropyl-18-phenyl-6,9-dihydro-18H-10,17-methanobenzo[b]pyrido[1,2-f][1]oxa[5,6,9]triazacyclotridecine-11,13-dione] | > 200 | 9.3 |
| Cc1c(F)ccc2c1OC/C=C\CN1CN([C@@H]2c2ccccc2)n2ccc(=O)c(O)c2C1=O (single isomer, unassigned) [Compound 133A, (18*R,Z)-3-fluoro-12-hydroxy-4-methyl-18-phenyl-6,9-dihydro-18H-10,17-methanobenzo[b]pyrido[1,2-f][1]oxa[5,6,9]triazacyclotridecine-11,13-dione] | > 200 | 4.1 |
| Cc1c(F)ccc2c1OC/C=C\CN1CN([C@H]2c2ccccc2)n2ccc(=O)c(O)c2C1=O (single isomer, unassigned) [Compound 133B, (18*S,Z)-3-fluoro-12-hydroxy-4-methyl-18-phenyl-6,9-dihydro-18H-10,17-methanobenzo[b]pyrido[1,2-f][1]oxa[5,6,9]triazacyclotridecine-11,13-dione] | > 200 | > 100 |
